Measured values from patent publication US20170197935A1, “INHIBITORS OF DNA GYRASE FOR THE TREATMENT OF BACTERIAL INFECTIONS” (Vitas Pharma Research Private Limited, priority 2012, published 2017).
In brackets after ≈: the same amount, converted by molar mass. Read-outs that look alike come from different tables or passages of the source.

How the values were obtained:
[1] = system: Staphylococcus aureus (ATCC 29213); assay: MIC by microbroth dilution, Staphylococcus aureus ATCC 29213; type: cell-based; conditions: ATCC29213
Procedure: (§1) Shown below are the microbiological activities of representative compounds of Formula I of the invention. The compounds were tested by the microbroth dilution method (National committee for Clinical Laboratory Standards, 2011, […]-08) and the Minimum Inhibitory Concentration (MIC) was determined.

[2] = system: Methicillin resistant Staphylococcus aureus (ATCC 33591); assay: MIC by microbroth dilution, MRSA ATCC 33591; type: cell-based
Procedure: (§2) Shown below are the microbiological activities of representative compounds of Formula I of the invention. The compounds were tested by the microbroth dilution method (National committee for Clinical Laboratory Standards, 2011, M07-08) and the Minimum Inhibitory Concentration (MIC) was determined.
(§3) Analysis of microbiological activity of compounds shown below are the microbiological activities of representative compounds of Formula II of the invention. The compounds were tested by the microbroth dilution method as per the reference in Example 1.

[3] = system: Streptococcus pneumoniae (ATCC 6301); assay: MIC by microbroth dilution, Streptococcus pneumoniae ATCC 6301; type: cell-based; conditions: ATCC6301
Procedure: as §1

[4] = system: Enterococcus faecalis (ATCC 29212); assay: MIC by microbroth dilution, Enterococcus faecalis ATCC 29212; type: cell-based; conditions: ATCC29212
Procedure: as §1

[5] = system: Moraxella catarrhalis (ATCC 8176); assay: MIC by microbroth dilution, Moraxella catarrhalis ATCC 8176; type: cell-based; conditions: ATCC8176
Procedure: as §1

E. coli (ATCC 25922) = assay: MIC by microbroth dilution, E. coli ATCC 25922; type: cell-based; conditions: Escherichia coli
Procedure: as §2, §3

[6] = system: K. pneumoniae (ATCC 700603); assay: MIC by microbroth dilution, K. pneumoniae ATCC 700603; type: cell-based; conditions: Klebsiella pneumoniae, ATCC700603, Formula I compounds
Procedure: as §2, §3

hERG = hERG (Homo sapiens, UniProt Q12809); assay: biochemical
Procedure: To test the ability of the VT-03 compounds to bind the hERG channel, membranes expressing the hERG channel were incubated with radiolabeled Astemizole and displacement of the labeled ligand in the presence of compounds was measured.
To test the ability of the VT-03 compounds (of Formula II) to bind the hERG channel, membranes expressing the hERG channel were incubated with radiolabeled Astemizole and displacement of the labeled ligand in the presence of compounds was measured.

E. faecalis ATCC 51299 = assay: MIC by microbroth dilution, E. faecalis ATCC 51299; type: cell-based; conditions: Enterococcus faecalis, ATCC51299, Formula II compounds, read-out: Minimum Inhibitory Concentration (MIC) E. faecalis ATCC 51299
Procedure: as §2, §3

Acinetobacter BAA747 = assay: MIC by microbroth dilution, Acinetobacter BAA747; type: cell-based; conditions: Formula II compounds, read-out: Minimum Inhibitory Concentration (MIC) Acinetobacter BAA747
Procedure: as §2, §3

Pseudomonas ATCC 27853 = assay: MIC by microbroth dilution, Pseudomonas ATCC 27853; type: cell-based; conditions: ATCC27853, Formula II compounds, read-out: Minimum Inhibitory Concentration (MIC) Pseudomonas ATCC 27853
Procedure: as §2, §3

[7] = target: T1, ciprofloxacin resistant recombinant Gyrase protein (with mutation S83L) (Escherichia coli, UniProt P0AES4+P0AES6, S83L); assay: Gyrase supercoiling assay with ciprofloxacin resistant Gyrase (S83L); type: biochemical; conditions: read-out: Target specificity: % inhibition of supercoiling activity
T1 construct: purchased Inspiralis
Procedure: The enzyme is incubated with the substrate (relaxed DNA) in the presence and absence of compounds for 1 hour at 37° C. and the DNA is run on a gel at low voltage for several hours. The amount of supercoiled DNA is quantified using DNA imaging and quantification software (Image Lab). The activity of the enzyme is proportional to the amount of supercoiled form detected.

MRSA E9823 = assay: MIC against FQ resistant clinical strain MRSA E9823; type: cell-based; conditions: Staphylococcus aureus, fluoroquinolone resistant clinical strain, read-out: MIC against FQ resistant strains, MRSA E9823
Procedure: as §2
(§4) To test if compounds are able to overcome fluoroquinolone resistance, we have determined the MICS against Fluoroquinolone (FQ) resistant clinical strains of MRSA and E. coli.

MRSA E9749 = assay: MIC against FQ resistant clinical strain MRSA E9749; type: cell-based; conditions: Staphylococcus aureus, fluoroquinolone resistant clinical strain, read-out: MIC against FQ resistant strains, MRSA E9749
Procedure: as §2, §4

E. coli Gyrase = target: T2, E. coli Gyrase (Escherichia coli, UniProt P0AES4+P0AES6); assay: in vitro Gyrase supercoiling assay (Inspiralis kit); type: biochemical; conditions: 1 hour at 37° C., read-out: % inhibition of DNA supercoiling activity
T2 construct: purchased Inspiralis
Procedure: To test for target specificity, the activity of compounds was evaluated in an in vitro Gyrase assay using recombinant Gyrase protein as per the instructions of the assay kit (Inspiralis). The assay measures the ability of E. coli Gyrase to convert relaxed plasmid DNA into the supercoiled form. The enzyme is incubated with the substrate (relaxed DNA) in the presence and absence of compounds for 1 hour at 37° C. and the DNA is run on a gel at low voltage for several hours. The gel is then stained with Ethidium bromide and DNA in the different forms is quantified using DNA imaging and quantification software (Image Lab). The activity of the enzyme is proportional to the amount of supercoiled form detected.

[8] = Single dose pharmacokinetics in male Swiss albino mice; type: in vivo; conditions: mouse, in vivo; for bioavailability: oral 10 mg/kg vs i.v. 5 mg/kg
Procedure: (§5) Compounds were dosed to male Swiss albino mice to determine the pharmacokinetic profiles.
as §5

A. baumannii = assay: Mutation prevention concentration and mutation frequency against A. baumannii; type: cell-based
Procedure: The mutation prevention concentration or the concentration above which mutants are unlikely to be selected, was determined based on published protocols (Antimicrobial Agents and Chemotherapy, 45, 433-438, 2001).
The mutation prevention concentration and mutation frequencies were determined based on published protocols, the reference of which is provided in Example 4.

[9] = ATCC33591, Formula I compounds, read-out: MIC Methicillin resistant Staphylococcus aureus (ATCC 33591)
[10] = ATCC25922, Formula I compounds, read-out: MIC E. coli (ATCC 25922)
[11] = Formula II compounds, read-out: Minimum Inhibitory Concentration (MIC) MRSA ATCC 33591
[12] = ATCC25922, Formula II compounds, read-out: Minimum Inhibitory Concentration (MIC) E. coli ATCC 25922

MIC [1] [µg/mL] | MIC [2, 9] [µg/mL] | MIC [3] [µg/mL] | MIC [4] [µg/mL] | MIC [5] [µg/mL] | MIC (E. coli (ATCC 25922); [10]) [µg/mL] | MIC [6] [µg/mL] | SMILES | IC50 (hERG) [µM] | MIC [2, 11] [µg/mL] | MIC (E. coli (ATCC 25922); [12]) [µg/mL] | MIC (E. faecalis ATCC 51299) [µg/mL] | MIC (Acinetobacter BAA747) [µg/mL] | MIC (Pseudomonas ATCC 27853) [µg/mL] | inhibition at 0.1 µM [7] [%] | inhibition at 1 µM [7] [%] | also measured
0.015 (≈ 0.0304 µM) | 0.06 (≈ 0.121 µM) | 0.03 (≈ 0.0607 µM) | 0.25 (≈ 0.506 µM) | 0.5 (≈ 1.01 µM) | 1 (≈ 2.02 µM) | 16 (≈ 32.4 µM) | COc1ccc2ncc(C#N)c(CCN3CCC(NC(=O)c4ccc(Cl)c([N+](=O)[O-])c4)CC3)c2c1 [VT-03-00058] | > 30 | – | – | – | – | – | – | – | –
– | – | – | – | – | – | – | COc1ccc2ncc(=O)n(CCN3CCC(NCc4ccc(Cl)c([N+](=O)[O-])c4)CC3)c2c1 [VT-03-00128] | – | 0.015 (≈ 0.0318 µM) | 0.5 to 1 (≈ 1.06 to 2.12 µM) | 0.25 (≈ 0.53 µM) | 0.25 (≈ 0.53 µM) | 8 (≈ 17 µM) | 34 | 51 | –
0.25 (≈ 0.554 µM) | 0.25 (≈ 0.554 µM) | 1 (≈ 2.21 µM) | 2 (≈ 4.43 µM) | 0.5 (≈ 1.11 µM) | 4 (≈ 8.86 µM) | > 32 | COc1ccc2ncc(C#N)c(CCN3CCC(NCc4csc([N+](=O)[O-])c4)CC3)c2c1 [VT-03-00053] | > 30 | – | – | – | – | – | – | – | –
– | – | – | – | – | – | – | Cc1ccc(CNC2CCN(CCn3c(=O)cnc4ccc(F)cc43)CC2)cc1F [VT-03-00122] | > 30 | 0.06 (≈ 0.145 µM) | 0.25 (≈ 0.606 µM) | 0.5 (≈ 1.21 µM) | 0.25 (≈ 0.606 µM) | 16 (≈ 38.8 µM) | 95.5 | 97.1 | AUC(0-t) ([8]; iv, 5 mg/kg): 242 ng·h/mL; Cmax ([8]; iv, 5 mg/kg): 381 ng/mL; Tmax ([8]; iv, 5 mg/kg): 9.6 min; half-life ([8]; iv, 5 mg/kg): 29.4 min; bioavailability [8]: 7.69%; AUC(0-t) ([8]; oral, 10 mg/kg): 37.3 ng·h/mL; Cmax ([8]; oral, 10 mg/kg): 28.1 ng/mL; Tmax ([8]; oral, 10 mg/kg): 60 min; Mutation prevention concentration against A. baumannii (A. baumannii): 16 µg/mL; Mutation frequency (A. baumannii; A. baumannii, at 8 μg/ml): 1.10 * 10^−8 at 8 μg/ml
– | – | – | – | – | – | – | O=c1cnc2ccc(F)cc2n1CCN1CCC(NCc2ccc(Cl)c([N+](=O)[O-])c2)CC1 [VT-03-00116] | – | 0.03 (≈ 0.0652 µM) | 0.25 (≈ 0.544 µM) | 0.25 (≈ 0.544 µM) | 0.25 (≈ 0.544 µM) | 16 (≈ 34.8 µM) | 96.9 | 94.3 | –
– | – | – | – | – | – | – | Cc1ccc(CNC2CCN(CCn3c(=O)cnc4ccc(F)cc43)CC2)cc1[N+](=O)[O-] [VT-03-00113] | – | 0.03 (≈ 0.0683 µM) | 0.125 (≈ 0.284 µM) | 0.25 (≈ 0.569 µM) | 0.25 (≈ 0.569 µM) | 8 (≈ 18.2 µM) | 90 | 94 | AUC(0-t) ([8]; iv, 5 mg/kg): 402 ng·h/mL; Cmax ([8]; iv, 5 mg/kg): 672 ng/mL; Tmax ([8]; iv, 5 mg/kg): 9.6 min; half-life ([8]; iv, 5 mg/kg): 22.2 min; bioavailability [8]: 1.16%; AUC(0-t) ([8]; oral, 10 mg/kg): 9.3 ng·h/mL; Cmax ([8]; oral, 10 mg/kg): 15.6 ng/mL; Tmax ([8]; oral, 10 mg/kg): 30 min

SMILES | MIC [1] [µg/mL] | MIC [2, 9] [µg/mL] | MIC [3] [µg/mL] | MIC [4] [µg/mL] | MIC [5] [µg/mL] | MIC (E. coli (ATCC 25922); [10]) [µg/mL] | MIC [6] [µg/mL] | IC50 (hERG) [µM] | MIC [2, 11] [µg/mL] | MIC (E. coli (ATCC 25922); [12]) [µg/mL] | MIC (E. faecalis ATCC 51299) [µg/mL] | MIC (Acinetobacter BAA747) [µg/mL] | MIC (Pseudomonas ATCC 27853) [µg/mL] | inhibition at 0.1 µM [7] [%] | inhibition at 1 µM [7] [%] | also measured
COc1ccc2ncc(=O)n(CCN3CCC(NCc4ccc(C)c([N+](=O)[O-])c4)CC3)c2c1 [VT-03-00062] | ≤ 0.0075 | 0.015 (≈ 0.0332 µM) | 0.015 (≈ 0.0332 µM) | 0.12 (≈ 0.266 µM) | ≤ 0.06 | 0.5 (≈ 1.11 µM) | 8 (≈ 17.7 µM) | – | – | – | – | – | – | – | – | MIC (MRSA E9823): ≤ 0.0075 µg/mL; MIC (MRSA E9749): 0.015 µg/mL (≈ 0.0332 µM); inhibition at 0.1 µM (E. coli Gyrase; 0.1 μM compound): 91.5%; inhibition at 1 µM (E. coli Gyrase; 1 μM compound): 98.7%
